Assay results: patent US20150087673A1, “METHODS FOR USING AND BIOMARKERS FOR AMPK-ACTIVATING COMPOUNDS” (RIGEL PHARMACEUTICALS, INC., priority 2013, published 2015)

What follows are molecules tested on AMPK (assay: AMPK activation assay (enzyme-linked immunosorbent assay)).
Format: cell-based
Method in brief: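 Read-out: immunodetected kinase activation after compound exposure, run with commercial kit reagents.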

| SMILES | EC50 [nM] |
| --- | --- |
| N#Cc1ccc(Oc2ccc(NC(=O)c3ccc(C(=O)N4CCN(Cc5ccc(F)cc5)CC4)cn3)cc2)cc1 [Compound 59, N-(4-(4-cyanophenoxy)phenyl)-5-(4-(4-fluorobenzyl)piperazine-1-carbonyl)picolinamide] | < 500 |
| COc1ccc(OC2CCN(C(=O)c3ccc(C(=O)N[C@H]4CC[C@@H](Oc5ccc(C#N)cc5)CC4)nc3)CC2)cc1 [Compound 174, N-((cis)-4-(4-cyanophenoxy)cyclohexyl)-5-(4-(4-methoxyphenoxy)piperidine-1-carbonyl)picolinamide] | < 500 |
| O=C(NC1CCN(Cc2cc(F)cc(F)c2)CC1)c1ccc(C(=O)N2CCC(Oc3ccc(F)c(F)c3)CC2)cn1 [Compound 297, N-(1-(3,5-difluorobenzyl)piperidin-4-yl)-5-(4-(3,4-difluorophenoxy)piperidine-1-carbonyl)picolinamide] | < 500 |
| O=C(NC1CCN(Cc2ccccc2)CC1)c1ccc(C(=O)N2CCN(c3ccncc3)CC2)cn1 [Compound 96, N-(1-benzylpiperidin-4-yl)-5-(4-(pyridin-4-yl)piperazine-1-carbonyl)picolinamide] | > 10000 |
| O=C(N[C@@H]1CCNC[C@@H]1F)c1ccc(C(=O)N2CCN(Cc3ccc(F)cc3)CC2)cn1 (relative stereo) [Compound 102, 5-(4-(4-fluorobenzyl)piperazine-1-carbonyl)-N-(cis-3-fluoropiperidin-4-yl)picolinamide] | 5000 to 10000 |
| CC(C)(c1ccc(C#N)cc1)N1CCC(NC(=O)c2ccc(C(=O)N3CCN(Cc4ccc(F)cc4)CC3)cn2)CC1 [Compound 111, N-(1-(2-(4-cyanophenyl)propan-2-yl)piperidin-4-yl)-5-(4-(4-fluorobenzyl)piperazine-1-carbonyl)picolinamide] | 1000 to 5000 |
| COc1ccc(CC2CCN(C(=O)c3ccc(C(=O)NC4CCN(Cc5ccc(C#N)cc5)CC4)nc3)CC2)cc1 [Compound 131, N-(1-(4-cyanobenzyl)piperidin-4-yl)-5-(4-(4-methoxybenzyl)piperidine-1-carbonyl)picolinamide] | < 500 |
| O=C(NC1CCN(Cc2cc(F)cc(F)c2)CC1)c1ccc(C(=O)N2CC[C@H](Oc3ccc(F)cc3)C2)cn1 [Compound 292, N-(1-(3,5-difluorobenzyl)piperidin-4-yl)-5-((S)-3-(4-fluorophenoxy)pyrrolidine-1-carbonyl)picolinamide] | < 500 |
| COc1ccc(OC2CCN(C(=O)c3ccc(C(=O)NC4CCN(Cc5ccc(C#N)cc5)CC4)cn3)CC2)c(NC(=O)CCOCCOCCOCCOCCNC(=O)CCCC[C@@H]2SC[C@@H]3NC(=O)N[C@@H]32)c1 [Compound 394, N-(1-(4-cyanobenzyl)piperidin-4-yl)-6-(4-(4-methoxy-2-(17-oxo-21-((3aS,4S,6aR)-2-oxohexahydro-1H-thieno[3,4-d]imidazol-4-yl)-4,7,10,13-tetraoxa-16-azahenicosanamido)phenoxy)piperidine-1-carbonyl)nicotinamide] | > 10000 |
| COc1ccc(CN2CCN(C(=O)c3ccc(C(=O)NC4CCN(Cc5ccc(C#N)cc5)CC4)nc3)CC2)cc1 [Compound 101, N-(1-(4-cyanobenzyl)piperidin-4-yl)-5-(4-(4-methoxybenzyl)piperazine-1-carbonyl)picolinamide] | < 500 |
| N#Cc1ccc(Oc2ccc(NC(=O)c3ccc(C(=O)N4CCN(Cc5ccc(F)cc5)CC4)nc3)cn2)cc1 [Compound 476, N-(6-(4-cyanophenoxy)pyridin-3-yl)-6-(4-(4-fluorobenzyl)piperazine-1-carbonyl)nicotinamide] | < 500 |
| CC(=O)c1ccc(Oc2ccc(NC(=O)c3ccc(C(=O)N4CCC(Oc5ccc(C(=O)N(C)C)cc5)CC4)nc3)cn2)cc1 [Compound 488, N-(6-(4-acetylphenoxy)pyridin-3-yl)-6-(4-(4-(dimethylcarbamoyl)phenoxy)piperidine-1-carbonyl)nicotinamide] | < 500 |
| Cc1ccc(CC2CCN(C(=O)c3ccc(C(=O)NC4CCN(Cc5ccc(C#N)cc5)CC4)nc3)CC2)cc1 [Compound 145, N-(1-(4-cyanobenzyl)piperidin-4-yl)-5-(4-(4-methylbenzyl)piperidine-1-carbonyl)picolinamide] | < 500 |
| O=C(Nc1cccc(-c2ccccc2)c1)c1ccc(C(=O)N2CCN(Cc3ccc(F)cc3)CC2)cn1 [Compound 12] | 5000 to 10000 |

More lines, now with the values ahead:

| EC50 [nM] | SMILES |
| --- | --- |
| < 500 | COc1ccc(OC2CCN(C(=O)c3ccc(C(=O)NC4CCN(Cc5cc(F)cc(F)c5)CC4)nc3)CC2)cc1 [Compound 296, N-(1-(3,5-difluorobenzyl)piperidin-4-yl)-5-(4-(4-methoxyphenoxy)piperidine-1-carbonyl)picolinamide] |
| < 500 | Cc1ccc(OC2CCN(C(=O)c3ccc(C(=O)NC4CCN(Cc5cc(F)cc(F)c5)CC4)nc3)CC2)cc1 [Compound 293, N-(1-(3,5-difluorobenzyl)piperidin-4-yl)-5-(4-(p-tolyloxy)piperidine-1-carbonyl)picolinamide] |
| < 500 | CS(=O)(=O)c1ccc(OC2CCN(C(=O)c3ccc(C(=O)NC4CCN(Cc5cccc(OC(F)(F)F)c5)CC4)nc3)CC2)cc1 [Compound 242, 5-(4-(4-(methylsulfonyl)phenoxy)piperidine-1-carbonyl)-N-(1-(3-(trifluoromethoxy)benzyl)piperidin-4-yl)picolinamide] |
| < 500 | CS(=O)(=O)c1ccc(OC2CCN(C(=O)c3ccc(C(=O)N[C@@H]4CCN(Cc5ccc(OC(F)(F)F)cc5)C[C@H]4F)nc3)CC2)cc1 (relative stereo) [Compound 255, N-((trans)-3-fluoro-1-(4-(trifluoromethoxy)benzyl)piperidin-4-yl)-5-(4-(4-(methylsulfonyl)phenoxy)piperidine-1-carbonyl)picolinamide] |
| < 500 | COc1ccc(C(=O)C2CCN(C(=O)c3ccc(C(=O)N[C@@H]4CCN(Cc5ccc(OC(F)(F)F)cc5)C[C@H]4F)cn3)CC2)cc1 (relative stereo) [Compound 350, N-((trans)-3-fluoro-1-(4-(trifluoromethoxy)benzyl)piperidin-4-yl)-6-(4-(4-methoxybenzoyl)piperidine-1-carbonyl)nicotinamide] |
| < 500 | COc1ccc(C(=O)C2CCN(C(=O)c3ccc(C(=O)NC4CCN(Cc5ccc(F)cc5)CC4)nc3)CC2)cc1 [Compound 178, N-(1-(4-fluorobenzyl)piperidin-4-yl)-5-(4-(4-methoxybenzoyl)piperidine-1-carbonyl)picolinamide] |
| > 10000 | N#Cc1ccc(OC2CCN(C(=O)c3ccc(C(=O)NC4CCN(Cc5cocn5)CC4)cn3)CC2)cc1 [Compound 355, 6-(4-(4-cyanophenoxy)piperidine-1-carbonyl)-N-(1-(oxazol-4-ylmethyl)piperidin-4-yl)nicotinamide] |
| < 500 | COc1ccc(C(=O)C2CCN(C(=O)c3ccc(C(=O)N[C@H]4CC[C@@H](Oc5ccc(C#N)c(F)c5)CC4)nc3)CC2)cc1 [Compound 198, N-((cis)-4-(4-cyano-3-fluorophenoxy)cyclohexyl)-5-(4-(4-methoxybenzoyl)piperidine-1-carbonyl)picolinamide] |
| < 500 | O=C(NC1CCN(Cc2ccc(OC(F)(F)F)cc2)CC1)c1ccc(C(=O)N2CCC(Oc3ccc(C(=O)C4CC4)cc3)CC2)nc1 [Compound 455, 6-(4-(4-(cyclopropanecarbonyl)phenoxy)piperidine-1-carbonyl)-N-(1-(4-(trifluoromethoxy)benzyl)piperidin-4-yl)nicotinamide] |
